Data reported in PubChem BioAssay AID1963985 (Molecular Pharmacology Branch, DTP, NCI, 2024).

Tested on: 252836-082-R-J2-PDC tumor spheroids, viability
Assay: Anticancer human tumor 252836-082-R-J2-PDC patient-derived head and neck squamous cell carcinoma cell line growth inhibition [PI3K]
Settings: spheroids with HUVEC and MSC; for IC50: curve of first compound; for viability, T/C: stronger effect = lower value
In short: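 Stroma-containing spheroids: tumor line, pooled-donor HUVEC, hMSC. Treatments: targeted agents with PI3K inhibitors. Dosing: clinically relevant, half-log spacing, 10 microM ceiling without known Cmax. Read-out: cell viability.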

[1] = second compound 0.0316 µM, first compound 0.0316 µM
[2] = second compound 0.0316 µM, first compound 0.1 µM
[3] = second compound 0.0316 µM, first compound 0.316 µM
[4] = second compound 0.0316 µM, first compound 1 µM
[5] = second compound 0.0316 µM, first compound 3.16 µM
[6] = second compound 0.0316 µM, first compound 10 µM
[7] = second compound 0.1 µM, first compound 0.0316 µM
[8] = second compound 0.1 µM, first compound 0.1 µM
[9] = second compound 0.1 µM, first compound 0.316 µM
[10] = second compound 0.1 µM, first compound 1 µM
[11] = second compound 0.1 µM, first compound 3.16 µM
[12] = second compound 0.1 µM, first compound 10 µM
[13] = second compound 0.316 µM, first compound 0.0316 µM
[14] = second compound 0.316 µM, first compound 0.1 µM
[15] = second compound 0.316 µM, first compound 0.316 µM
[16] = second compound 0.316 µM, first compound 1 µM
[17] = second compound 0.316 µM, first compound 3.16 µM
[18] = second compound 0.316 µM, first compound 10 µM
[19] = second compound 1 µM, first compound 0.0316 µM
[20] = second compound 1 µM, first compound 0.1 µM
[21] = second compound 1 µM, first compound 0.316 µM
[22] = second compound 1 µM, first compound 1 µM
[23] = second compound 1 µM, first compound 3.16 µM
[24] = second compound 1 µM, first compound 10 µM
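Further: spheroids exposed to agents for seven days before readout.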
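Wherever viability, T/C is given: percent of vehicle DMSO control viability so 100% = untreated growth.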

**Q.** `C=CC(=O)N1CCN(c2nc(=O)n(-c3c(C)ccnc3C(C)C)c3nc(-c4c(O)cccc4F)c(F)cc23)C(C)C1` (centres undefined) + CC(Nc1ccc2c(c1)OCCn1cc(N3C(=O)OCC3C(F)F)nc1-2)C(N)=O was tested. Which IC50 (second compound 0.00316 µM) did it give?
**A.** The IC50 was over 10 µM.

**Q.** And the IC50 (second compound 0.01 µM)?
**A.** Its IC50 is over 10 µM.

**Q.** What about the IC50 (second compound 0.0316 µM) of the same compound?
**A.** The IC50 was over 10 µM.

**Q.** And the IC50 (second compound 0.1 µM)?
**A.** The IC50 was over 10 µM.

**Q.** And the IC50 (second compound 0.316 µM)?
**A.** Its IC50 is over 10 µM.

**Q.** And the IC50 (second compound 1 µM)?
**A.** The IC50 was under 0.0316 µM.

**Q.** And the viability, T/C (second compound 0.00316 µM, first compound 0.0316 µM)?
**A.** Its viability, T/C is 104%.

**Q.** And the viability, T/C (second compound 0.00316 µM, first compound 0.1 µM)?
**A.** Its viability, T/C is 87.8%.

**Q.** What about the viability, T/C (second compound 0.00316 µM, first compound 0.316 µM) of the same compound?
**A.** Its viability, T/C is 105%.

**Q.** What about the viability, T/C (second compound 0.00316 µM, first compound 1 µM) of the same compound?
**A.** The viability, T/C was 105%.

**Q.** And the viability, T/C (second compound 0.00316 µM, first compound 3.16 µM)?
**A.** Its viability, T/C is 115%.

**Q.** And the viability, T/C (second compound 0.00316 µM, first compound 10 µM)?
**A.** Its viability, T/C is 95.9%.

**Q.** What about the viability, T/C (second compound 0.01 µM, first compound 0.0316 µM) of the same compound?
**A.** The viability, T/C was 95.3%.

**Q.** And the viability, T/C (second compound 0.01 µM, first compound 0.1 µM)?
**A.** Its viability, T/C is 90%.

**Q.** And the viability, T/C (second compound 0.01 µM, first compound 0.316 µM)?
**A.** Its viability, T/C is 117%.

**Q.** What about the viability, T/C (second compound 0.01 µM, first compound 1 µM) of the same compound?
**A.** Its viability, T/C is 86.8%.

**Q.** And the viability, T/C (second compound 0.01 µM, first compound 3.16 µM)?
**A.** The viability, T/C was 104%.

**Q.** What about the viability, T/C (second compound 0.01 µM, first compound 10 µM) of the same compound?
**A.** The viability, T/C was 89.7%.

**Q.** And the viability, T/C [1]?
**A.** Its viability, T/C is 79.2%.

**Q.** And the viability, T/C [2]?
**A.** Its viability, T/C is 78.6%.

**Q.** And the viability, T/C [3]?
**A.** Its viability, T/C is 104%.

**Q.** And the viability, T/C [4]?
**A.** Its viability, T/C is 88.4%.

**Q.** And the viability, T/C [5]?
**A.** The viability, T/C was 100%.

**Q.** And the viability, T/C [6]?
**A.** The viability, T/C was 78.3%.

**Q.** And the viability, T/C [7]?
**A.** Its viability, T/C is 76.1%.

**Q.** And the viability, T/C [8]?
**A.** Its viability, T/C is 62.8%.

**Q.** And the viability, T/C [9]?
**A.** The viability, T/C was 76.9%.

**Q.** What about the viability, T/C [10] of the same compound?
**A.** Its viability, T/C is 76.3%.

**Q.** And the viability, T/C [11]?
**A.** The viability, T/C was 81%.

**Q.** What about the viability, T/C [12] of the same compound?
**A.** The viability, T/C was 94.6%.

**Q.** And the viability, T/C [13]?
**A.** Its viability, T/C is 63.5%.

**Q.** What about the viability, T/C [14] of the same compound?
**A.** Its viability, T/C is 60.6%.

**Q.** And the viability, T/C [15]?
**A.** The viability, T/C was 59.5%.

**Q.** What about the viability, T/C [16] of the same compound?
**A.** Its viability, T/C is 56.3%.

**Q.** And the viability, T/C [17]?
**A.** The viability, T/C was 62.2%.

**Q.** What about the viability, T/C [18] of the same compound?
**A.** Its viability, T/C is 67.6%.

**Q.** And the viability, T/C [19]?
**A.** The viability, T/C was 45.3%.

**Q.** And the viability, T/C [20]?
**A.** The viability, T/C was 53%.

**Q.** What about the viability, T/C [21] of the same compound?
**A.** The viability, T/C was 53.3%.

**Q.** And the viability, T/C [22]?
**A.** Its viability, T/C is 41.6%.

**Q.** And the viability, T/C [23]?
**A.** Its viability, T/C is 57%.

**Q.** What about the viability, T/C [24] of the same compound?
**A.** The viability, T/C was 47.7%.

**Q.** For `CNC(=O)c1ccc(N2C(=S)N(c3ccc(C#N)c(C(F)(F)F)c3)C(=O)C2(C)C)cc1F` + CC(Nc1ncnc2nc[nH]c12)c1cc2cccc(Cl)c2c(=O)n1-c1ccccc1, which IC50 (second compound 0.0316 µM) is on record?
**A.** Its IC50 is over 10 µM.

**Q.** And the IC50 (second compound 0.1 µM)?
**A.** Its IC50 is over 10 µM.

**Q.** What about the IC50 (second compound 0.316 µM) of the same compound?
**A.** Its IC50 is over 10 µM.

**Q.** And the IC50 (second compound 1 µM)?
**A.** The IC50 was over 10 µM.

**Q.** And the IC50 (second compound 3.16 µM)?
**A.** Its IC50 is over 10 µM.

**Q.** And the IC50 (second compound 10 µM)?
**A.** The IC50 was over 10 µM.

**Q.** And the viability, T/C [1]?
**A.** The viability, T/C was 103%.

**Q.** And the viability, T/C [2]?
**A.** The viability, T/C was 83.9%.

**Q.** What about the viability, T/C [3] of the same compound?
**A.** Its viability, T/C is 91.7%.

**Q.** What about the viability, T/C [4] of the same compound?
**A.** The viability, T/C was 85.1%.

**Q.** And the viability, T/C [5]?
**A.** Its viability, T/C is 98.2%.

**Q.** What about the viability, T/C [6] of the same compound?
**A.** Its viability, T/C is 93.4%.

**Q.** And the viability, T/C [7]?
**A.** Its viability, T/C is 86.4%.

**Q.** What about the viability, T/C [8] of the same compound?
**A.** The viability, T/C was 83.5%.

**Q.** What about the viability, T/C [9] of the same compound?
**A.** The viability, T/C was 113%.

**Q.** And the viability, T/C [10]?
**A.** The viability, T/C was 91.2%.

**Q.** And the viability, T/C [11]?
**A.** The viability, T/C was 86.2%.

**Q.** What about the viability, T/C [12] of the same compound?
**A.** The viability, T/C was 78.6%.

**Q.** What about the viability, T/C [13] of the same compound?
**A.** Its viability, T/C is 102%.

**Q.** What about the viability, T/C [14] of the same compound?
**A.** Its viability, T/C is 79.5%.

**Q.** And the viability, T/C [15]?
**A.** Its viability, T/C is 90.5%.

**Q.** What about the viability, T/C [16] of the same compound?
**A.** The viability, T/C was 90.2%.

**Q.** And the viability, T/C [17]?
**A.** Its viability, T/C is 88.7%.

**Q.** What about the viability, T/C [18] of the same compound?
**A.** Its viability, T/C is 78%.

**Q.** And the viability, T/C [19]?
**A.** The viability, T/C was 80.9%.

**Q.** And the viability, T/C [20]?
**A.** The viability, T/C was 94.9%.

**Q.** And the viability, T/C [21]?
**A.** Its viability, T/C is 90.9%.

**Q.** And the viability, T/C [22]?
**A.** Its viability, T/C is 89.6%.

**Q.** What about the viability, T/C [23] of the same compound?
**A.** The viability, T/C was 94%.

**Q.** And the viability, T/C [24]?
**A.** The viability, T/C was 80.6%.

**Q.** What about the viability, T/C (second compound 3.16 µM, first compound 0.0316 µM) of the same compound?
**A.** The viability, T/C was 85.7%.

**Q.** What about the viability, T/C (second compound 3.16 µM, first compound 0.1 µM) of the same compound?
**A.** The viability, T/C was 73.2%.

**Q.** And the viability, T/C (second compound 3.16 µM, first compound 0.316 µM)?
**A.** Its viability, T/C is 75.7%.

**Q.** And the viability, T/C (second compound 3.16 µM, first compound 1 µM)?
**A.** The viability, T/C was 74.3%.

**Q.** And the viability, T/C (second compound 3.16 µM, first compound 3.16 µM)?
**A.** Its viability, T/C is 86.4%.

**Q.** And the viability, T/C (second compound 3.16 µM, first compound 10 µM)?
**A.** Its viability, T/C is 62.2%.

**Q.** And the viability, T/C (second compound 10 µM, first compound 0.0316 µM)?
**A.** The viability, T/C was 63%.

**Q.** What about the viability, T/C (second compound 10 µM, first compound 0.1 µM) of the same compound?
**A.** Its viability, T/C is 71.8%.

**Q.** And the viability, T/C (second compound 10 µM, first compound 0.316 µM)?
**A.** Its viability, T/C is 70.9%.

**Q.** What about the viability, T/C (second compound 10 µM, first compound 1 µM) of the same compound?
**A.** Its viability, T/C is 70.5%.

**Q.** What about the viability, T/C (second compound 10 µM, first compound 3.16 µM) of the same compound?
**A.** Its viability, T/C is 69.8%.

**Q.** What about the viability, T/C (second compound 10 µM, first compound 10 µM) of the same compound?
**A.** The viability, T/C was 59.3%.
